Read-outs that look alike come from different tables or passages of the source. Marks after values point to notes of the source that are not given here.
Legend:
HCT116 tumor xenografts = experiment: Therapeutic study and tumor growth modeling, HCT116 tumor xenografts; assay type: in vivo, mice
Procedure: (§1) For tumor bearing studies, cells were harvested and resuspended in a 1∶1 mixture of serum-free RPMI and Matrigel (BD Bioscience). One million cells were injected subcutaneously into each rear flank of mice. Tumor volumes, measured by digital calipers, were calculated by V (mm^3) = length x (width)^2 x 0.5236.
(§2) When HT29 and HCT116 tumors reached an average volume of ∼325 mm^3 animals were randomized into four treatment groups (n = 9–10 mice per group): (i) vehicles, (ii) 5 mg/kg everolimus (RAD) by oral gavage (PO) daily, (iii) 10 mg/kg irinotecan (IRI) once weekly by intravenous (iv) tail vein injection, and (iv) a combination of RAD and IRI. Everolimus, diluted in sterile water, and irinotecan, diluted in sterile 0.9% saline, were administered at 4 mL/kg. Animals were treated for 28 days. Tumor volumes and body weights were measured 2–3 times weekly. On day 28 of treatment 3–6 animals per group were sacrificed, approximately 24 hours following everolimus treatment, and tumors harvested for metabolomic analysis.
(§3) Data from the in vivo study was modeled to assess the therapeutic benefit of adding everolimus to irinotecan. The model used was similar to a previously published model for assessing combination therapy. Some modifications were made and details of the model can be found in Supplement S1 (section SA.3.) and Supplement S2. All modeling was performed on individual animal tumor volume data and modeled with SAAM II version 2.1. […]
(§4) are presented in Tables 1 and 2 in Supplement B. Individual fits of the model to the data can also be found in Supplement B. The average growth terms for each tumor type were then fixed at the average parameter value and used to determine the single agent effects (kx) of each compound by fitting the following equation: […] where cx(t) is the concentration of drug x with respect to time. Individual tumors were modeled and the average value of kx determined (Supplement B Tables 1 & 2) for each single agent treatment. This value was used to fit the following equation to the combination tumor growth data to determine the degree of interaction between the two drugs.
(§5) , the interaction term, was determined for each individual tumor for each tumor type and the data is presented in Table 2 in the main text and individual fits can be found in Supplement B.
(§6) We determined that values greater than 1.3 are synergistic, between 1.3 and 0.7 are additive, between 0.7 and 0 are less than additive, and negative values for are antagonistic. These ranges were selected based on the model fits. The CV% for the model fits ranged from 15 to 50 with an average CV% of approximately 30%. Therefore we assume an average variance of 30% making the additive range from 1.3 to 0.7 (1 + 30% and 1- 30%). […]

HT29 tumors = experiment: NMR-based metabolomics of HT29 tumors; assay type: in vivo, mice; conditions: end of study
Procedure: as §2
For metabolomic analysis, animals were fasted for 4 hours then received 250 mg/kg of [1-^13C] glucose (Cambridge Isotopes, Cambridge, MA) by IV injection 60 minutes prior to tumor harvesting. Snap-frozen tumor specimens underwent two-phase acid extraction procedure (using 8% perchloric acid) previously established and extensively published [19]–[22]. Further details may also be found in Supplement S1 (section SA.2.).

HT29 tumor xenografts = experiment: Therapeutic study and tumor growth modeling, HT29 tumor xenografts; assay type: in vivo, mice
Procedure: as §1, §2, §3, §4, §5, §6

[1] = Irinotecan and SN-38 plasma PK model and simulations in mice; conditions: PK model parameter, fit to data of previous publications (37-39)
Excerpt: The pharmacokinetic models used for everolimus and irinotecan and SN38 in the above equations can be found in Supplement B. Data used to fit the everolimus pharmacokinetics was obtained in the study presented here. In the above equations, for irinotecan treatments, SN38 concentration was used to determine the effect since it is the active agent. The data used to fit the irinotecan and SN38 pharmacokinetics was obtained from previous publications (37-39).
Irinotecan and SN-38 Plasma PK […]

p21 = experiment: Western blot, p21 in CRC cell lines; assay type: cell-based; conditions: SN38 4 nM, 24 hours, HCT116 and HCT8 cells
Procedure: (§7) Cells were seeded into 6-well plates 24 hours prior to treatment with each drug alone or in combination for 24 hours. Cells were scraped into RIPA buffer containing protease inhibitors, EDTA, NaF, and sodium orthovanadate. Total protein was determined using the Pierce 660 nm Protein Assay (Pierce, Rockford, IL). Thirty micrograms of total protein was loaded onto a 4–12% gradient gel, electrophoresed and transferred to nitrocellulose using the iBlot system (Invitrogen, Carlsbad, CA). Membranes were blocked for one hour at room temperature with Licor Blocking Buffer (Licor, Lincoln, NE) prior to overnight incubation at 4°C with one of the following antibodies: pS6RP, tS6RP, pAKT, tAKT, pERK, tERK, p21, PARP, actin and α-tubulin (Cell Signaling, Beverly, MA). All antibodies were used at a 1∶1000 dilution except for pERK, which was used at 1∶2000. Following primary antibody incubation, blots were washed in TBS-Tween(0.1%), then incubated with the appropriate secondary antibody at 1∶15,000 (Licor, Lincoln, NE) for one hour at room temperature. After three additional washes, blots were developed using the Licor Odyssey (Licor, Lincoln, NE).

[2] = SN38, mice; cited from earlier work
[3] = Human pharmacokinetics of SN38 after irinotecan from the literature; assay type: in vivo; conditions: humans, irinotecan doses ranging from 125–350 mg/m^2, from literature data
Procedure: (§8) In vivo SN38 data was evaluated to define the dose of irinotecan to be used since it is the active metabolite of irinotecan and carboxylesterase conversion of irinotecan to SN38 varies between mice and humans. Based on human and mouse pharmacokinetic data gathered from literature data [27]–[30], [35]–[40], we selected a dose of 10 mg/kg of irinotecan to be administered intravenously once weekly (Table 2).

cleaved PARP = experiment: Western blot, cleaved PARP in CRC cell lines; assay type: cell-based
Procedure: as §7

HCT8 cells = experiment: Sulforhodamine B (SRB) anti-proliferation assay, HCT8; assay type: cell-based; conditions: RAD (20 nM), SN38 (4 nM) or the combination of the two, Figure 2
Procedure: (§9) Cytoxic effects were determined using the sulforhodamine B (SRB) assay. Briefly, 5000 viable cells were plated into 96-well plates and incubated overnight prior to exposure with different concentrations of drugs. Cells were exposed to increasing concentrations of everolimus (0–200 nM), SN38 (0–8 nM), and combinations of the two. Following a 72 hour incubation, media was removed and cells were fixed with cold 10% trichloroacetic acid for 30 minutes at 4° C. Cells were washed with water and stained with 0.4% SRB for 30 minutes at room temperature. Cells were washed again with 1% acetic acid and stain was solubilized with 10 mM tris at room temperature and read at an OD of 565 nm. […] The resulting Combination Index (CI) was used as a quantitative measure of the degree of interaction between different drugs. A CI value equal to 1 denotes additivity; CI greater than 1, antagonism; CI less than 1, synergism.

[4] = cited from earlier work; for AUC0→t: t = 6 h
[5] = Human, cited from earlier work
[6] = SN38, humans; cited from earlier work
HT29 cells = experiment: Sulforhodamine B (SRB) anti-proliferation assay, HT29; assay type: cell-based
Procedure: as §9

HCT116 cells = experiment: Sulforhodamine B (SRB) anti-proliferation assay, HCT116; assay type: cell-based
Procedure: as §9

[7] = Mouse pharmacokinetics of SN38 after irinotecan from the literature; assay type: in vivo; conditions: mice, irinotecan 10 mg/kg iv, estimated from literature data
Procedure: as §8

[8] = SN38 after irinotecan 5mg/kg IV Bolus, Mouse
[9] = SN38 after irinotecan 10mg/kg IV Bolus, Mouse, ref 39
[10] = SN38 after irinotecan 20mg/kg IV Bolus, Mouse
[11] = SN38 after irinotecan 40mg/kg IV Bolus, Mouse
[12] = SN38 after irinotecan 125mg/m^2, 1.5 hr INF, ref 27
[13] = SN38 after irinotecan 125mg/m^2, 1.5 hr INF, ref 29
[14] = SN38 after irinotecan 340mg/m^2, 1.5 hr INF
[15] = SN38 after irinotecan 350mg/m^2, 1 hr INF, Week 4 PK with cetuximab
[16] = SN38 after irinotecan 350mg/m^2, 1 hr INF

In the case of `CCc1c2c(nc3ccc(OC(=O)N4CCC(N5CCCCC5)CC4)cc13)-c1cc3c(c(=O)n1C2)COC(=O)[C@]3(O)CC` [Irinotecan], the “k1 (SD), single agent effect” value (HCT116 tumor xenografts; HCT116 (KRAS and PIK3CA mutant), IRI, SN38 concentration used in the model) is reported as 0.0149 (0.0086) mL/ng*day-1, the “average tumor growth inhibition, TGI” value (HCT116 tumor xenografts; HCT116 xenografts, 5 mg/kg everolimus PO daily, 10 mg/kg irinotecan iv once weekly, or combination, 28 days) is reported as 17% and the “effect on tumor lipids” value (HT29 tumors) is reported as “accumulation of lipids”. For the same compound, the “k1 (SD), single agent effect” value (HT29 tumor xenografts; HT29 (BRAF and PIK3CA mutant), IRI, SN38 concentration used in the model) was 0.0092 (0.0023) mL/ng*day-1, the “average tumor growth inhibition, TGI” value (HT29 tumor xenografts; HT29 xenografts, 5 mg/kg everolimus PO daily, 10 mg/kg irinotecan iv once weekly, or combination, 28 days) was 39% and the “k(0,1)” value ([1]; K(0,1)IRI) was 0.25 h⁻¹. For the same compound, the “k(3,1)” value ([1]; compartment 1 (irinotecan) to 3 (SN-38)) was 1.91 h⁻¹, the V1 ([1]; irinotecan central compartment, Dose = 10 mg/kg) was 2.8 L/kg and the “k(1,2)” value [1] was 1.15 h⁻¹. The “k(2,1)” value [1] was 0.87 h⁻¹.

In the case of `CCc1c2c(nc3ccc(O)cc13)-c1cc3c(c(=O)n1C2)COC(=O)[C@]3(O)CC` [SN38], the “effect on p21” value (p21) is given as “increase”, the plasma protein binding [2] is given as 96.6–98.6% and the “AUCfree of SN38” value [3] is given as 4.4 to 18.6 ng·h/mL. For the same compound, the “cleaved PARP (MW 89)” value (cleaved PARP; SN38 treated HCT8 cells) was “A small amount”, the “cleaved PARP (MW 89)” value (cleaved PARP; SN38 treated HT29 or HCT116 cells) was “not” and the “%Growth Inhibition” value (HCT8 cells) was 50%. For the same compound, the “AUC0→∞” value [4, 8] was 279 ^c ng·hr/mL, the Cmax [4, 8] was 647 ng/mL and the Cmax ([4]; SN38 after irinotecan 10mg/kg IV Bolus, Mouse (row r13), estimated from graph in reference) was 443–673 ^b ng/mL. For the same compound, the “AUC0→∞” value ([4]; SN38 after irinotecan 10mg/kg IV Bolus, Mouse (row r13)) was 533–1029 ^c ng·hr/mL, the Cmax ([4]; SN38 after irinotecan 10mg/kg IV Bolus, Mouse, estimated from graph in reference) was 435–600 ^b ng/mL and the t½ ([4]; SN38 after irinotecan 10mg/kg IV Bolus, Mouse, ref 36) was 2.2 h. For the same compound, the “AUC0→∞” value ([4]; SN38 after irinotecan 10mg/kg IV Bolus, Mouse, ref 37) was 533–759 ^c ng·hr/mL, the “AUC0→∞” value [4, 9] was 534 ^c ng·hr/mL and the Cmax [4, 9] was 443 ng/mL. The AUC0→t ([4]; SN38 after irinotecan 10mg/kg IV Bolus, Mouse) was 410±60 (t = 6 h) ng·hr/mL, the AUC0→t [4, 10] was 710±240 (t = 6 h) ng·hr/mL and the t½ [4, 10] was 3.0 h. For the same compound, the AUC0→t [4, 11] was 1080±110 (t = 6 h) ng·hr/mL, the t½ [4, 11] was 3.4 h and the AUC0→t [5, 12] was 229 ± 108 ng·h/mL. The Cmax [5, 12] was 26.3 ± 11.9 ng/mL, the t½ [5, 12] was 10.4 ± 3.1 h and the AUC0→t [5, 13] was 228 ± 149 ng·h/mL. The Cmax [5, 13] was 27 ± 12 ng/mL, the t½ [5, 13] was 28.5 h and the AUC0→t ([5]; SN38 after irinotecan 180mg/m^2, 1.5 hr INF, footnote a: Week 4 PK with cetuximab) was 222–245 ^a ng·hr/mL. For the same compound, the AUC0→t [5, 14] was 474 ± 245 ng·h/mL, the Cmax [5, 14] was 56.0 ± 28.2 ng/mL and the t½ [5, 14] was 21.0 ± 4.3 h. The AUC0→t [5, 15] was 609±531 ^a ng·hr/mL, the Cmax [5, 15] was 57±20 ^a ng/mL and the t½ [5, 15] was 15±23 ^a hr. For the same compound, the AUC0→t [5, 16] was 931 ± 948 ng·h/mL, the Cmax [5, 16] was 88 ± 26 ng/mL and the t½ [5, 16] was 23 ± 35 h. For the same compound, the plasma protein binding [6] was 98%, the “%Growth Inhibition” value (HT29 cells; HT29, RAD (20 nM), SN38 (4 nM) or the combination of the two, Figure 2) was 59% and the IC50 (HT29 cells; HT29 cells) was 3 nM. For the same compound, the “k(0,3)” value ([1]; K(0,3)SN38) was 4.67 h⁻¹, the V3 ([1]; SN-38 central compartment) was 2.7 L/kg and the “k(3,4)” value [1] was 1.38 h⁻¹. For the same compound, the “k(4,3)” value [1] was 5.22 h⁻¹, the “%Growth Inhibition” value (HCT116 cells; HCT116, RAD (20 nM), SN38 (4 nM) or the combination of the two, Figure 2) was 23% and the IC50 (HCT116 cells; HCT116 cells) was greater than 300 nM. The “AUCfree of SN38” value [7] was 7.5 to 25.8 ng·h/mL.

Source: article PMC3592886, “Utilization of Quantitative In Vivo Pharmacology Approaches to Assess Combination Effects of Everolimus and Irinotecan in Mouse Xenograft Models of Colorectal Cancer” (PLoS ONE, 2013)
